Laboratory results taken from ChEMBL document CHEMBL4800721, “Data for DCP probe A-446” (2021).
“And” between values parts separate entries of the source, which are not always exact repeats. Equal values may be shown once. One block for each compound: values may come before it. The source made the active and inactive calls. No cut-off for these calls is given here.

How the values were obtained:
[1] = molecular target: Glutaminase liver isoform, mitochondrial (Homo sapiens, UniProt Q9UI32); assay: GLS2 Enzyme activity assay
[2] = molecular target: Glutaminase kidney isoform, mitochondrial (Homo sapiens, UniProt O94925); assay: GLS Enzyme activity assay
[3] = molecular target: Muscarinic acetylcholine receptor M5 (Homo sapiens) (UniProt P08912); conditions: Compound concentration 10.0 uM
[4] = molecular target: D(3) dopamine receptor (Homo sapiens) (UniProt P35462); conditions: Compound concentration 10.0 uM
[5] = molecular target: Muscarinic acetylcholine receptor M3 (Homo sapiens) (UniProt P20309); conditions: Compound concentration 10.0 uM
[6] = molecular target: Kappa-type opioid receptor (Homo sapiens) (UniProt P41145); conditions: Compound concentration 10.0 uM
[7] = molecular target: 5-hydroxytryptamine receptor 2B (Homo sapiens) (UniProt P41595); conditions: Compound concentration 10.0 uM
[8] = molecular target: 5-hydroxytryptamine receptor 3A (Homo sapiens) (UniProt P46098); conditions: Compound concentration 10.0 uM
[9] = molecular target: 5-hydroxytryptamine receptor 1B (Homo sapiens) (UniProt P28222); conditions: Compound concentration 10.0 uM
[10] = molecular target: 5-hydroxytryptamine receptor 5A (Homo sapiens) (UniProt P47898); conditions: Compound concentration 10.0 uM
[11] = molecular target: 5-hydroxytryptamine receptor 1E (Homo sapiens) (UniProt P28566); conditions: Compound concentration 10.0 uM
[12] = molecular target: T1, 5-hydroxytryptamine receptor 1D (Homo sapiens, UniProt P28221); conditions: Compound concentration 10.0 uM
[13] = molecular target: Alpha-2A adrenergic receptor (Homo sapiens) (UniProt P08913); conditions: Compound concentration 10.0 uM
[14] = molecular target: Histamine H2 receptor (Homo sapiens) (UniProt P25021); conditions: Compound concentration 10.0 uM
[15] = GPCRScan assay: inhibition of GABA/PBR; parameters: species or system Rattus norvegicus; radioligand conc. used [nm] 0.3 – 2.0, parental cells brain tissue
[16] = molecular target: Alpha-2C adrenergic receptor (Homo sapiens) (UniProt P18825); conditions: Compound concentration 10.0 uM
[17] = molecular target: T1, 5-hydroxytryptamine receptor 1D; assay: GPCRScan assay: inhibition of 5-HT1D; parameters: radioligand conc. used [nm] 1.0 – 2.0, parental cells HEKT
[18] = molecular target: Histamine H4 receptor (Homo sapiens) (UniProt Q9H3N8); conditions: Compound concentration 10.0 uM
[19] = molecular target: D(4) dopamine receptor (Homo sapiens) (UniProt P21917); conditions: Compound concentration 10.0 uM
[20] = system: A549; assay: A549 CTG Assay; type: cell-based; conditions: Homo sapiens
[21] = molecular target: 5-hydroxytryptamine receptor 7 (Homo sapiens, UniProt P34969); assay: GPCRScan assay: inhibition of 5-HT7A; parameters: radioligand conc. used [nm] 5.0 – 6.0, parental cells Stable HEK
[22] = molecular target: Muscarinic acetylcholine receptor M4 (Homo sapiens) (UniProt P08173); conditions: Compound concentration 10.0 uM
[23] = molecular target: Histamine H1 receptor (Homo sapiens) (UniProt P35367); conditions: Compound concentration 10.0 uM
[24] = molecular target: Beta-2 adrenergic receptor (Homo sapiens) (UniProt P07550); conditions: Compound concentration 10.0 uM
[25] = molecular target: Alpha-2B adrenergic receptor (Homo sapiens) (UniProt P18089); conditions: Compound concentration 10.0 uM
[26] = molecular target: Sigma non-opioid intracellular receptor 1 (Homo sapiens) (UniProt Q99720); conditions: Compound concentration 10.0 uM
[27] = molecular target: Mu-type opioid receptor (Homo sapiens) (UniProt P35372); conditions: Compound concentration 10.0 uM
[28] = molecular target: Sigma intracellular receptor 2 (Homo sapiens) (UniProt Q5BJF2); conditions: Compound concentration 10.0 uM
[29] = molecular target: 5-hydroxytryptamine receptor 6 (Homo sapiens) (UniProt P50406); conditions: Compound concentration 10.0 uM
[30] = molecular target: 5-hydroxytryptamine receptor 2A (Homo sapiens) (UniProt P28223); conditions: Compound concentration 10.0 uM
[31] = molecular target: Delta-type opioid receptor (Homo sapiens) (UniProt P41143); conditions: Compound concentration 10.0 uM
[32] = molecular target: Sodium-dependent dopamine transporter (Homo sapiens) (UniProt Q01959); conditions: Compound concentration 10.0 uM
[33] = molecular target: Muscarinic acetylcholine receptor M1 (Homo sapiens) (UniProt P11229); conditions: Compound concentration 10.0 uM
[34] = molecular target: 5-hydroxytryptamine receptor 1A (Homo sapiens) (UniProt P08908); conditions: Compound concentration 10.0 uM
[35] = molecular target: Beta-1 adrenergic receptor (Homo sapiens) (UniProt P08588); conditions: Compound concentration 10.0 uM

T1 sequence (P28221 whole entry): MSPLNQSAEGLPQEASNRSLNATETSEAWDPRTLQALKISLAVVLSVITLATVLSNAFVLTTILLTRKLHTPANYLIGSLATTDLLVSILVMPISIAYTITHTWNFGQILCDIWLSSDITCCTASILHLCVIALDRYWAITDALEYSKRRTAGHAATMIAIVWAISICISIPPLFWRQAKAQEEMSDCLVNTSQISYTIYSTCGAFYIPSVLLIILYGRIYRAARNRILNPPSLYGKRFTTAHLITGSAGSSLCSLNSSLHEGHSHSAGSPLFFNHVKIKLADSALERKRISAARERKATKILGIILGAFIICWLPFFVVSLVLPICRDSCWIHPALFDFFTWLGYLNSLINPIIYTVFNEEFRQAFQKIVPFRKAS
5-hydroxytryptamine receptor 7, sequence (P34969 whole entry): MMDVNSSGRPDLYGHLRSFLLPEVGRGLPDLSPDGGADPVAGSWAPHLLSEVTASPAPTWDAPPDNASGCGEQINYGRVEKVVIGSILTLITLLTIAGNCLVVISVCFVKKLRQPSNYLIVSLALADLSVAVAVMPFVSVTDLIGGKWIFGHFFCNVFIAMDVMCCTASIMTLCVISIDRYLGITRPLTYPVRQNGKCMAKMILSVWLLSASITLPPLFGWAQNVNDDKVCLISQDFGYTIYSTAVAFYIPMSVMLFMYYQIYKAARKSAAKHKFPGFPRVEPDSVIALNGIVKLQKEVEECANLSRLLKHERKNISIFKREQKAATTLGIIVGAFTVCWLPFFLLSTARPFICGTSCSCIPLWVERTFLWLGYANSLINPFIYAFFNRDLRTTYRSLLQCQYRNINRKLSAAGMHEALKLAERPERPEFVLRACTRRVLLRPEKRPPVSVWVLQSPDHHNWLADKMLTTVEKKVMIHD
Glutaminase kidney isoform, mitochondrial, sequence (O94925 whole entry, canonical isoform): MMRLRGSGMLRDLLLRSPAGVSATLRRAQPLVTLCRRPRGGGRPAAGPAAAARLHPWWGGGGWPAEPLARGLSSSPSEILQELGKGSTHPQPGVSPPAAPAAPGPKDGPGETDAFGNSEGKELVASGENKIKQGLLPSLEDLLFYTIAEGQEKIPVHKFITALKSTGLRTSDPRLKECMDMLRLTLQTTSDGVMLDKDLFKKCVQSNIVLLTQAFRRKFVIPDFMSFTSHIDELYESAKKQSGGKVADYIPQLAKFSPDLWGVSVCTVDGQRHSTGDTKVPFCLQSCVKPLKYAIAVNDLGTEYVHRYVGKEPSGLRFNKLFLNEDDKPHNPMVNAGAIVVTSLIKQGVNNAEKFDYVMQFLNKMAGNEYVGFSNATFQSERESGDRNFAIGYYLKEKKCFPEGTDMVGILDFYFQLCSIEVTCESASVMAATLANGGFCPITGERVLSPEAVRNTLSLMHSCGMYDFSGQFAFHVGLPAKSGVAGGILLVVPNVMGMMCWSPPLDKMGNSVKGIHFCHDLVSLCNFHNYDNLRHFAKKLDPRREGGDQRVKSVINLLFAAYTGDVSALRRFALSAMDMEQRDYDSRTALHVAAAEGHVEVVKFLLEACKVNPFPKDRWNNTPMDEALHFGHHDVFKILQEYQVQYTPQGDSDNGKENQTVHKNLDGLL
Glutaminase liver isoform, mitochondrial, sequence (Q9UI32 whole entry, canonical isoform): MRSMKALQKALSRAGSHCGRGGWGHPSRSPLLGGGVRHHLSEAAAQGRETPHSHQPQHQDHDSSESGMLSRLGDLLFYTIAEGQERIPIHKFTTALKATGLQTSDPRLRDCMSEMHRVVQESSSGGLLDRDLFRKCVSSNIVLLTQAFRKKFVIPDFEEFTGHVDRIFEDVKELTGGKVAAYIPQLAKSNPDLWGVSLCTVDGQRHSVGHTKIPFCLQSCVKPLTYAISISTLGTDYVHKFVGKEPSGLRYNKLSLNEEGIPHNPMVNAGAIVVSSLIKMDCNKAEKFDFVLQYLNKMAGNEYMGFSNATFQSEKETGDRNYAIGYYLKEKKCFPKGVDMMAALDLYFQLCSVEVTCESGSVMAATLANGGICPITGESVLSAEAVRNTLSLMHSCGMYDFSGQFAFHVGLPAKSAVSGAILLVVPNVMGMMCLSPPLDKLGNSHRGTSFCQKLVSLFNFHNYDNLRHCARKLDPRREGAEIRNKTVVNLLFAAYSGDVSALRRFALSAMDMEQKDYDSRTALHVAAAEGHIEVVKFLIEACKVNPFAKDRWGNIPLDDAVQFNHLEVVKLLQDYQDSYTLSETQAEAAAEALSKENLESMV
Delta-type opioid receptor (Homo sapiens), sequence (P41143 whole entry): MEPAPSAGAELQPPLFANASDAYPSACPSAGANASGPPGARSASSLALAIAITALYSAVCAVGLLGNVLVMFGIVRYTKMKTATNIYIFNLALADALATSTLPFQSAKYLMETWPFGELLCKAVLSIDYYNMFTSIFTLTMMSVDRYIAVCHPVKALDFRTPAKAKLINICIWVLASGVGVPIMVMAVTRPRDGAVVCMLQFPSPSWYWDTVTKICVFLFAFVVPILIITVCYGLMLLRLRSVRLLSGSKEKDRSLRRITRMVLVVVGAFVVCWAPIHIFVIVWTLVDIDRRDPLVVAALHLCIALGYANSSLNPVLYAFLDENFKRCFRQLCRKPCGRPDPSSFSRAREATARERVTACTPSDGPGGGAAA
Muscarinic acetylcholine receptor M4 (Homo sapiens), sequence (P08173 whole entry): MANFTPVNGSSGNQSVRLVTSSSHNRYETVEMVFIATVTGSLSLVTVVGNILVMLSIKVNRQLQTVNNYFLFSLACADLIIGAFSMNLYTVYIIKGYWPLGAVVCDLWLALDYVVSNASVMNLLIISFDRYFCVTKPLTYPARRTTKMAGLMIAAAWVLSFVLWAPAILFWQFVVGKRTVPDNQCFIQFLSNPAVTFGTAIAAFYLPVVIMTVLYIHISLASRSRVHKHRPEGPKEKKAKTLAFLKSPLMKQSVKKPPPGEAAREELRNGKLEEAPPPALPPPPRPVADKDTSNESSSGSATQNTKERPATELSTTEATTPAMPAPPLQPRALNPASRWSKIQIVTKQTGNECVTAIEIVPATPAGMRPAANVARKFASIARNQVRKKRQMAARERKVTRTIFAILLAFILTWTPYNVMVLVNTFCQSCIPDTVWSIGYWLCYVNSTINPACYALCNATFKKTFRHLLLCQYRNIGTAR
5-hydroxytryptamine receptor 5A (Homo sapiens), sequence (P47898 whole entry): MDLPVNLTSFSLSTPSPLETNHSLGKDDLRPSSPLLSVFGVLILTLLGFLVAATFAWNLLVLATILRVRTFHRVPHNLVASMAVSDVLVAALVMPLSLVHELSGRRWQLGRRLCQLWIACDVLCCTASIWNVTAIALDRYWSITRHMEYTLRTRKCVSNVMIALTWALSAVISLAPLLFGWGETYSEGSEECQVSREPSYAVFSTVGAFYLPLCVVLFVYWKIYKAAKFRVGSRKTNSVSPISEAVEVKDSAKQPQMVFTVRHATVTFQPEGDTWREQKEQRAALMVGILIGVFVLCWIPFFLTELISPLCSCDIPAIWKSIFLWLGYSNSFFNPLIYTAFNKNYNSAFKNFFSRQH
Sigma non-opioid intracellular receptor 1 (Homo sapiens), sequence (Q99720 whole entry): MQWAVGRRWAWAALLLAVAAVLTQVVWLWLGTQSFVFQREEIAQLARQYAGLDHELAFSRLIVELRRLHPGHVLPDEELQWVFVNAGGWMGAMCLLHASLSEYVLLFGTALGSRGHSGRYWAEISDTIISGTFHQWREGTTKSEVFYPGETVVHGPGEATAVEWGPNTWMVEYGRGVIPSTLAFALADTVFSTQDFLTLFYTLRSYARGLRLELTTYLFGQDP
5-hydroxytryptamine receptor 3A (Homo sapiens), sequence (P46098 whole entry): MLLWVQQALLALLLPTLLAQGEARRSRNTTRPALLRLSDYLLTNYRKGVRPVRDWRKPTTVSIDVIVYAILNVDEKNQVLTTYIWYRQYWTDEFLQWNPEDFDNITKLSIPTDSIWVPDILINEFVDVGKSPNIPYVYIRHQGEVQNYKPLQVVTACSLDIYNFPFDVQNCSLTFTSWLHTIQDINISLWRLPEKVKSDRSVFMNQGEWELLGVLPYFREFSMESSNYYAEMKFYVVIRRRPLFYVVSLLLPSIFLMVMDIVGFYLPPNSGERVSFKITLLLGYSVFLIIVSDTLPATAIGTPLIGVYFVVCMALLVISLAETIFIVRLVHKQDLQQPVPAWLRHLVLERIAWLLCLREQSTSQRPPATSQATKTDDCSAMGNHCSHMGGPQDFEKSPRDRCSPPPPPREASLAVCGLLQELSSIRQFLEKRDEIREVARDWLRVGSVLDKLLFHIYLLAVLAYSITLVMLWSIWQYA
5-hydroxytryptamine receptor 2A (Homo sapiens), sequence (P28223 whole entry): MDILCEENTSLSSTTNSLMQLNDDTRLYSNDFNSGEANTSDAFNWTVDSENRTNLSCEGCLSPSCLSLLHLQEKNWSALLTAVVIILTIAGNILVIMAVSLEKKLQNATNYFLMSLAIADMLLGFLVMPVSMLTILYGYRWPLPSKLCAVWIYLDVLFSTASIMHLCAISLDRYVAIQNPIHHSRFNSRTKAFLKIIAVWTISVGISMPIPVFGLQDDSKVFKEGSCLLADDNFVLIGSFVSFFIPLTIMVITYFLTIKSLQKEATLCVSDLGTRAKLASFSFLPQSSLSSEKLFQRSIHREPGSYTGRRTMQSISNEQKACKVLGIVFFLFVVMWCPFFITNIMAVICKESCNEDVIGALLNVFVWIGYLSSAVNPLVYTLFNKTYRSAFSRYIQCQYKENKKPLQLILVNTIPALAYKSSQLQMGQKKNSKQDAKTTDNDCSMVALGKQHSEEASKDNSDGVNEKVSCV
D(3) dopamine receptor (Homo sapiens), sequence (P35462 whole entry): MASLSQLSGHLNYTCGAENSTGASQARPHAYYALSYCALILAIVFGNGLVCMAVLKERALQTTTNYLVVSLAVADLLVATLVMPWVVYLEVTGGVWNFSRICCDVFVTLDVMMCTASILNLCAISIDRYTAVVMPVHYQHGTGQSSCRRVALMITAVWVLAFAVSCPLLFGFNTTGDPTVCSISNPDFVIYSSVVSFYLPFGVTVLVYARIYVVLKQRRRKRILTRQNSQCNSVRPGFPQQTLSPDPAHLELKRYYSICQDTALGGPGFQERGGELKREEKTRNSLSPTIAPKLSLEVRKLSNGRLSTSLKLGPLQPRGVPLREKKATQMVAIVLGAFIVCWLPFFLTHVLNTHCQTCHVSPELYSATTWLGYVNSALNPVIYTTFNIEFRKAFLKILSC

IC50 [1]: > 30 µM (not active) | IC50 [2]: > 30 µM (not active)
SMILES: O=C(Cc1ccccc1)Nc1nnc(N2CC[C@@H]3[C@H]2CN3c2cccnn2)s1 [A-426]

inhibition [3]: 15% | inhibition [4]: -3.72% | inhibition [5]: 9.66% | inhibition [6]: 2.85% | inhibition [7]: 1.83% | inhibition [8]: 1.72% | IC50 [1]: > 30 µM (not active) | inhibition [9]: 11.2% | inhibition [10]: 4.08% | inhibition [11]: -1.42% | inhibition [12]: 55.1% | inhibition [13]: 12.2% | inhibition [14]: -5.22% | Ki [15]: > 10 µM | pKi [15]: < 5 | inhibition [16]: 13.9% | Ki ([17]; read-out: Ki): > 10 µM and 6.45 µM | Ki ([17]; read-out: pKi (converted)): > 10 µM | inhibition [18]: 18.3% | inhibition [19]: -7.36% | IC50 [20]: 0.0105 µM (active) | Ki [21]: > 10 µM | pKi [21]: < 5 | inhibition [22]: -9.24% | IC50 [2]: 0.031 µM (active) | inhibition [23]: 21.3% | inhibition [24]: -8.05% | inhibition [25]: -6.1% | inhibition [26]: 9.03% | inhibition [27]: -3.29% | inhibition [28]: 6.42% | inhibition [29]: -4.23% | inhibition [30]: -2.63% | inhibition [31]: -2.96% | inhibition [32]: 33.5% | inhibition [33]: 14.6% | inhibition [34]: 1.9% | inhibition [35]: 1.03%
SMILES: O=C(Cc1ccccc1)Nc1nnc(N2C[C@H]3C[C@@H]2CN3c2cccnn2)s1 [A-446]
